From patent publication US5420122A, “3-pyrrolidinylthio-1-azabicyclo-[3.2.0]hept-2-ene-2-carboxylic acid compounds” (Fujisawa Pharmaceutical Co., Ltd., priority 1986, dated 1995)
Values after ≈ are worked out from the molar mass of the structure shown.

Tested on: Proteus vulgaris 49
Assay: in vitro antimicrobial activity, two-fold agar-plate dilution method (MIC)
Format: cell-based
Settings: heart infusion agar, 37° C., 20 hours, 10^6 viable cells per ml
Protocol: in vitro Antimicrobial Activity
in vitro Antimicrobial Activity was determined by the two-fold agar-plate dilution method as described below.
One loopful of an overnight culture of each test strain in Trypticase-soy broth (10^6 viable cells per ml) was streaked on heart infusion agar (HI-agar) containing graded concentrations of the test compound, and the minimal inhibitory concentration (MIC) was expressed in terms of ug/ml after incubation at 37° C. for 20 hours.

- MIC: 0.05 µg/mL (≈ 0.132 µM)
SMILES: C[C@@H](O)[C@H]1C(=O)N2C(C(=O)O)=C(S[C@@H]3CN[C@H](c4nc[nH]n4)C3)[C@H](C)[C@H]12 [Test Compound, (4R,5S,6S )-6-[(1R) -1-Hydroxyethyl]-4-methyl-7-oxo-3-[(2S,4S)-2-(1H-1,2,4-triazol-3-yl)pyrrolidin-4-ylthio]-1-azabicyclo [3.2.0]hept-2-ene-2-carboxylic acid]
